Read-outs that look alike come from different tables or passages of the source. Where no end group is shown, it is not given here. [ ]: non-standard residue; d: D form. The star is where a group is joined. Met(O) = CS(=O)CC[C@H](N)C(=O)O; Hexanoyl = CCCCCC(=O)*
How the values were obtained:
[1] = target: T1, human VPAC1 (Homo sapiens, UniProt P32241); assay: Filter binding assay, membranes of cells transiently transfected with human VPAC1, 125I-labeled VIP tracer (Table 2); design: expressed in transfected cells
T1 sequence (P32241 31-457): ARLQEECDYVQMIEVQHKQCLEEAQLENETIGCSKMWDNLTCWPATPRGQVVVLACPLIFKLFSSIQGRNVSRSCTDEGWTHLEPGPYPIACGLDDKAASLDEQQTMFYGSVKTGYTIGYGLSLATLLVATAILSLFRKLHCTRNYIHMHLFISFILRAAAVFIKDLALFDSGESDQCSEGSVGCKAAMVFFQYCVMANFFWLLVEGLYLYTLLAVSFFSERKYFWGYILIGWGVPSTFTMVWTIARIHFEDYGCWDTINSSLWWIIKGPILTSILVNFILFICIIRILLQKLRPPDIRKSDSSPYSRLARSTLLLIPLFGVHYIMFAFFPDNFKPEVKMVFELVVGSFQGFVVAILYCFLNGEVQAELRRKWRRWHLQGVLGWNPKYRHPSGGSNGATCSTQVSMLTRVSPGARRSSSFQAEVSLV
Experimental: (§1) For this assay, the solutions and equipment include:
(§2) Presoak solution: 0.5% Polyethyleneamine in Aqua dest.
(§3) Buffer for flushing filter plates: 25 mM HEPES pH 7.4
(§4) Blocking buffer: 25 mM HEPES pH 7.4; 0.2% protease free BSA
(§5) Assay buffer: 25 mM HEPES pH 7.4; 0.5% protease free BSA
(§6) Dilution and assay plate: PS-Microplate, U form
(§7) Filtration Plate Multiscreen FB Opaque Plate; […] Type B Glasfiber filter
(§8) In order to prepare the filter plates, aspirate the presoak solution by vacuum filtration. Flush the plates twice with 200 μL flush buffer. Add 200 μL blocking buffer to the filter plate. The filter plate is then incubated […] for 1 hour at room temperature.
(§9) Fill the assay plate with 25 μL assay buffer, 25 μL membranes (2.5 μg) suspended in assay buffer, 25 μL compound (agonist) in assay buffer, and 25 μL tracer (about 40000 cpm) in assay buffer. Incubate the filled plate for 1 hour with shaking.
(§10) Conduct the transfer from assay plate to filter plate. Aspirate the blocking buffer by vacuum filtration and wash two times with flush buffer. Transfer 90 μL from the assay plate to the filter plate. Aspirate the 90 μL transferred from assay plate and wash three times with 200 μL flush buffer. Remove the plastic support. Dry for 1 hour at 60° C. Add 30 μL Microscint. Perform the count.

[2] = target: T2, human VPAC2 (Homo sapiens, UniProt P41587); assay: Filter binding assay, membranes of stable VPAC2 cell line, 125I-labeled VIP tracer (Table 2)
T2 construct: expressed in transfected cells
T2 sequence (P41587 24-438): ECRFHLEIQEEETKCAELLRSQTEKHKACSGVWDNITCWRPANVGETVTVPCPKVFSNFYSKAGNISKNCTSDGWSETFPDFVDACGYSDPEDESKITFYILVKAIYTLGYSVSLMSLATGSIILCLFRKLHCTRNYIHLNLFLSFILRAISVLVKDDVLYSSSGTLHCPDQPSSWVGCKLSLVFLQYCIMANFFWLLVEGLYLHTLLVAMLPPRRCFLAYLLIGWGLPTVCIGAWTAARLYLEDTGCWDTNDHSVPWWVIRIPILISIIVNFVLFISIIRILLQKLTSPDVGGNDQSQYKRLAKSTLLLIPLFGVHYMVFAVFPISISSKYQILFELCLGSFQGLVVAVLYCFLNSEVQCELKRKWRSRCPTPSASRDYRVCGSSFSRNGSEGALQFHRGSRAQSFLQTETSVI
Experimental: as §1, §2, §3, §4, §5, §6, §7, §8, §9, §10

[3] = target: T3, human PAC1 (Homo sapiens, UniProt P41586); assay: Filter binding assay, membranes of cells transiently transfected with human PAC1, 125I-labeled PACAP-27 tracer (Table 2); design: expressed in transfected cells
T3 sequence (P41586 21-468): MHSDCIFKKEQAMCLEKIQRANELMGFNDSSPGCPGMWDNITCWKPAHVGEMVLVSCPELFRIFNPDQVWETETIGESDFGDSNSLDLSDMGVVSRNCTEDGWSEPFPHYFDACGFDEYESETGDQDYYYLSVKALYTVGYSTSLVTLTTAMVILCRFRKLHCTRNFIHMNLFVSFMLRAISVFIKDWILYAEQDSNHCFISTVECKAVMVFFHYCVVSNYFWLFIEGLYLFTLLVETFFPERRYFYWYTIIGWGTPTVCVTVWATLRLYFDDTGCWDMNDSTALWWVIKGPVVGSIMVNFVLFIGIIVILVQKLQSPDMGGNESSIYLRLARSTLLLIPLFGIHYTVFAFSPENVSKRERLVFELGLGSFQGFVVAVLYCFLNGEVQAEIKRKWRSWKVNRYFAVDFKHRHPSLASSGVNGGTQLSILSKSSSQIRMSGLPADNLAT
Experimental: as §1, §2, §3, §4, §5, §6, §7, §8, §9, §10

[4] = read-out: Human VPAC1 Receptor Binding
[5] = read-out: Human VPAC2 Receptor Binding
[6] = read-out: Human PAC1 Receptor Binding

| Molecule | IC50 [1, 4] [nM] | IC50 [2, 5] [nM] | IC50 [3, 6] [nM] | IC50 [1] [nM] | IC50 [2] [nM] | IC50 [3] [nM] |
| --- | --- | --- | --- | --- | --- | --- |
| CCCCCC(=O)N[C@@H](Cc1c[nH]cn1)C(=O)N[C@@H](CO)C(=O)N[C@@H](CC(=O)O)C(=O)N[C@@H](C)C(=O)N[C@H](C(=O)N[C@@H](Cc1ccccc1)C(=O)N[C@H](C(=O)N[C@@H](CC(=O)O)C(=O)N[C@@H](CC(N)=O)C(=O)N[C@@H](Cc1ccc(O)cc1)C(=O)N[C@H](C(=O)N[C@@H](CCCNC(=N)N)C(=O)N[C@@H](CC(C)C)C(=O)N[C@@H](CCCNC(=N)N)C(=O)N[C@@H](CCCCN)C(=O)N[C@@H](CCC(N)=O)C(=O)NC(C)(C)C(=O)N[C@@H](C)C(=O)N[C@@H](C)C(=O)N[C@@H](CCCCN)C(=O)N[C@@H](CCCCN)C(=O)N[C@@H](Cc1ccc(O)cc1)C(=O)N[C@@H](CC(C)C)C(=O)N[C@@H](CCC(N)=O)C(=O)N[C@@H](CO)C(=O)N[C@H](C(=O)N[C@@H](CCCCN)C(=O)N[C@@H](CC(N)=O)C(=O)N[C@@H](CCCCN)C(=O)N[C@@H](CCCNC(=N)N)C(=O)N[C@@H](Cc1ccc(O)cc1)C(=O)NCC(=O)NCC(=O)N1CCC[C@H]1C(=O)N[C@@H](CO)C(=O)N[C@@H](CO)C(=O)NCC(=O)N[C@@H](C)C(=O)N1CCC[C@H]1C(=O)N1CCC[C@H]1C(=O)N1CCC[C@H]1C(=O)N[C@@H](CO)C(=O)O)[C@@H](C)CC)[C@@H](C)O)[C@@H](C)O)C(C)C [Agonist P189] | 6.87 | 0.2 | 303 |  |  |  |
| H-HSDGVFTDNYTRLRKQVAAKKYLQSIKNKRYGGPSSGAPPPS [Agonist P102] |  |  |  | 184 | 15.4 | 55 |
| Hexanoyl-HHSDAVFTDNYTRLLAKLALQKYLQSIKNKRYGGPSSGAPPPS [Agonist P191] | 1280 | 60.6 | > 25000 |  |  |  |
| Hexanoyl-HSDAVFTDNYTRLRKQVAAKKLLQSIKNKRYGGPSSGAPPPS [Agonist P132] | 617 | 1.51 | 1020 |  |  |  |
| Hexanoyl-HSDAVFTDNYTRLRKQVAAKKTLQSIKNKRYGGPSSGAPPPS [Agonist P131] | 1370 | 5.67 | 632 |  |  |  |
| Hexanoyl-HSDAVFTDNYTRLRKQVAAKKVLQSIKNKRYGGPSSGAPPPS [Agonist P134] | 833 | 2.13 | 479 |  |  |  |
| Hexanoyl-HSDAVFTLNYTRLRKQVAAKKYLQSIKNKRYGGPSSGAPPPS [Agonist P161] | 119 | 6.61 | 4260 |  |  |  |
| Hexanoyl-HSDAVFTRNYTRLRKQVAAKKYLQSIKNKRYGGPSSGAPPPS [Agonist P162] | 5.14 | 3.72 | 186 |  |  |  |
| IHSDAVFTDNYTRLRKQVAAKKYLQSIKNKRYGGPSSGAPPPS [Agonist P105] |  |  |  | 263 | 5.41 | 127 |
| [Met(O)]HSDAVFTDNYTRLRKQVAAKKYLQSIKNKRYGGPSSGAPPPS [Agonist P199] |  |  |  | 429 | 8.26 | 244 |

Reference: patent US20080026996A1, “Selective Vpac2 Receptor Reptide Agonists” (ELI LILLY AND COMPANY, priority 2004, published 2008)
